From ChEMBL document CHEMBL3044934, “Design, synthesis, and antiviral evaluation of phenanthrene-based tylophorine derivatives as potential antiviral agents” (2010)

Tests used:
Format in all cases: functional
Tobacco mosaic virus [1] = experiment: Antiviral activity against Tobacco mosaic virus (TMV) inoculated on whole Nicotiana tabacum leaves followed by smearing with 100 ug/mL compound solution on left side of leaves assessed as viral infection curative effect measured 3 to 4 days post viral infection
Tobacco mosaic virus [2] = experiment: Antiviral activity against Tobacco mosaic virus (TMV) pre-treated with 500 ug/mL compound for 30 min followed by inoculation on left side of Nicotiana tabacum leaves assessed as virus inactivation effect measured 3 to 4 days post viral infection
Tobacco mosaic virus [3] = experiment: Antiviral activity against Tobacco mosaic virus (TMV) pre-treated with 100 ug/mL compound for 30 min followed by inoculation on left side of Nicotiana tabacum leaves assessed as virus inactivation effect measured 3 to 4 days post viral infection
Tobacco mosaic virus [4] = experiment: Antiviral activity against Tobacco mosaic virus (TMV) inoculated on 500 ug/mL compound smeared Nicotiana tabacum leaves assessed as protective effect against viral infection measured 3 to 4 days post viral infection
Tobacco mosaic virus [5] = experiment: Antiviral activity against Tobacco mosaic virus (TMV) inoculated on 100 ug/mL compound smeared Nicotiana tabacum leaves assessed as protective effect against viral infection measured 3 to 4 days post viral infection
Tobacco mosaic virus [6] = experiment: Antiviral activity against Tobacco mosaic virus (TMV) inoculated on whole Nicotiana tabacum leaves followed by smearing with 500 ug/mL compound solution on left side of leaves assessed as viral infection curative effect measured 3 to 4 days post viral infection

Row | SMILES | Activity (Tobacco mosaic virus [1]) [%] | Activity (Tobacco mosaic virus [2]) [%] | Activity (Tobacco mosaic virus [3]) [%] | Activity (Tobacco mosaic virus [4]) [%] | Activity (Tobacco mosaic virus [5]) [%] | Activity (Tobacco mosaic virus [6]) [%]
1 | COC(=O)C1CCCCN1C(=O)c1cc2cc(OC)c(OC)cc2c2cc(OC)c(OC)cc12 (stereo not drawn) | 4.9 | 17.3 | 4.4 | 56.3 | 12.5 | 17.9
2 | COc1cc2cc(CN3CCCCC3CO)c3cc(OC)c(OC)cc3c2cc1OC (stereo not drawn) | 36.2 | 8.4 | 5.2 | 21.3 | 4.6 | 46.8
3 | COc1cc2c3c(c4cc(OC)c(OC)cc4c2cc1OC)CN1CCC[C@@H]1C3 [TYLOPHORINE] | 57.7 | 62.6 | 56.4 | 53.3 | 37.9 | 65.9
4 | COc1cc2cc(CN3CCCCC3C(=O)O)c3cc(OC)c(OC)cc3c2cc1OC (stereo not drawn) | 28.9 | 68.9 | 38.7 | 12.9 | 10 | 45.1
5 | COc1cc2cc(CN3CCC[C@H]3CO)c3cc(OC)c(OC)cc3c2cc1OC | 13.4 | 74.2 | 36.9 | 19.2 | 10.4 | 34.6
6 | COc1cc2cc(C(=O)NCCCCCCO)c3cc(OC)c(OC)cc3c2cc1OC | 49.6 | 60.9 | 57.8 | 41.7 | 22.5 | 65
7 | CNCC(=O)N[C@@H](CO)C(=O)N[C@H]1[C@H](O)[C@@H](O)[C@H](n2ccc(N)nc2=O)O[C@@H]1C(N)=O [NINGNANMYCIN] | 39 | 68.4 | 48 | 48.7 | 47.5 | 47.9
8 | COC(=O)CCCCCNC(=O)c1cc2cc(OC)c(OC)cc2c2cc(OC)c(OC)cc12 | 48 | 6.7 | 5.8 | 54.6 | 14.2 | 65.9
9 | COc1cc2cc(CN3CCC(O)CC3)c3cc(OC)c(OC)cc3c2cc1OC | 33.7 | 71.1 | 9.3 | 70.8 | 11.3 | 37.4
10 | COc1cc2cc(CN3CCC[C@H]3C(=O)O)c3cc(OC)c(OC)cc3c2cc1OC | 14.2 | 39.6 | 21.3 | 35.4 | 23.3 | 54.1
11 | COC(=O)[C@@H]1CCCN1C(=O)c1cc2cc(OC)c(OC)cc2c2cc(OC)c(OC)cc12 | 10.6 | 8.4 | 8 | 56.7 | 19.2 | 64.6
12 | COC(=O)[C@@H]1CCCN1Cc1cc2cc(OC)c(OC)cc2c2cc(OC)c(OC)cc12 | 2.9 | 80 | 54.7 | 47.1 | 38.3 | 33.7
13 | COC(=O)C1CCCCN1Cc1cc2cc(OC)c(OC)cc2c2cc(OC)c(OC)cc12 (stereo not drawn) | 1.2 | 59.1 | 50.2 | 64.6 | 27.1 | 11.8
